Test results from patent US20250195521A1 (Revolution Medicines, Inc., priority 2020, published 2025).

Key:
[1] = test system: K-Ras G12C (NCI-H358 cells); assay: Potency assay: pERK in NCI-H358 cells; assay type: cell-based, human; settings: Homo sapiens; NCI-H358 cells, 4 hours; read-out: pERK EC50 (H358 KRAS G12C)
Method in brief: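 Cells plated the day before were exposed for 4 h at 37° C, 5% CO2 to a 10-point, 3-fold DMSO dilution series (10 mM top stock), in duplicate. Phospho-ERK was read by AlphaLISA SureFire Ultra or by In-Cell Western with DRAQ5 DNA stain, and IC50 came from a 4-parameter sigmoidal fit.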

[2] = test system: Capan-1 cells (K-Ras G12V); assay: CellTiter-Glo cell viability, Capan-1; assay type: cell-based, human; settings: Homo sapiens, CAPAN-1, 120 h, K-Ras G12V, 5-day treatment; read-out: Capan-1 Cell Viability IC50
Method in brief: (§1)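 Compounds dispensed directly onto seeded cells; on day 5 plates equilibrated ~30 min to room temperature and luminescence read. Signal normalized to DMSO average (%) and fitted by four-parameter logistic.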

KRAS G12D = KRAS G12D (Homo sapiens (Human), UniProt P01116+P62937, G12D); assay: Ras-Raf disruption/FRET/MOA assay (BRAF RBD, Cyclophilin A); assay type: biochemical; settings: read-out: KRAS G12D FRET IC50
Method in brief: (§2)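 TR-FRET readout: anti-His Eu-W1024 (10 nM) and anti-GST allophycocyanin (50 nM) added after 3 h, 25° C compound incubation, then 1.5 h more. Decrease in FRET ratio versus DMSO wells marks Ras:RAF disruption; IC50 reported.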

KRAS G12C = KRAS G12C (Homo sapiens (Human), UniProt P01116+P62937, G12C); assay: as above; assay type: biochemical; settings: read-out: KRAS G12C FRET IC50
Method in brief: as §2

KRAS Q61H = KRAS Q61H (Homo sapiens (Human), UniProt P01116+P62937, Q61H); assay: as above; assay type: biochemical
Method in brief: as §2

NRAS G12C = NRAS G12C (Homo sapiens (Human), UniProt P01111+P62937, G12C); assay: as above; assay type: biochemical; settings: read-out: NRAS G12C FRET data IC50
Method in brief: (§3)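 25 μM tagless Cyclophilin A, 12.5 nM His6-Ras-GMPPNP and 50 nM GST-BRAF RBD in HEPES pH 7.3 buffer with 5 mM MgCl2, with compound (10-point 3-fold series from 30 μM final) for 3 h at 25 °C. Anti-His Eu and anti-GST APC then added for 1.5 h. IC50 from TR-FRET ratio decrease versus DMSO.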

KRAS G12S = KRAS G12S (Homo sapiens (Human), UniProt P01116+P62937, G12S); assay: as above; assay type: biochemical; settings: read-out: KRAS G12S FRET IC50
Method in brief: as §2

NRAS WT = NRAS WT (Homo sapiens (Human), UniProt P01111+P62937); assay: as above; assay type: biochemical
Method in brief: as §3

NRAS Q61K = NRAS Q61K (Homo sapiens (Human), UniProt P01111+P62937, Q61K); assay: as above; assay type: biochemical
Method in brief: as §3

KRAS G13C = KRAS G13C (Homo sapiens (Human), UniProt P01116+P62937, G13C); assay: as above; assay type: biochemical; settings: read-out: KRAS G13C FRET IC50
Method in brief: as §2

KRAS G12V = KRAS G12V (Homo sapiens (Human), UniProt P01116+P62937, G12V); assay: as above; assay type: biochemical; settings: read-out: KRAS G12V FRET IC50
Method in brief: as §2

KRAS WT = KRAS WT (Homo sapiens (Human), UniProt P01116+P62937); assay: as above; assay type: biochemical; settings: read-out: KRAS WT FRET data IC50
Method in brief: as §2

NRAS Q61R = NRAS Q61R (Homo sapiens (Human), UniProt P01111+P62937, Q61R); assay: as above; assay type: biochemical
Method in brief: as §3

KRAS G13D = KRAS G13D (Homo sapiens (Human), UniProt P01116+P62937, G13D); assay: as above; assay type: biochemical; settings: read-out: KRAS G13D FRET data IC50
Method in brief: as §2

[3] = test system: NCI-H358 cells (K-Ras G12C); assay: CellTiter-Glo cell viability, NCI-H358; assay type: cell-based, human; settings: Homo sapiens, NCI-H358, 120 h, K-Ras G12C, 5-day treatment; read-out: H358 Cell Viability IC50
Method in brief: as §1

Sequence of NRAS G12C (P01111 whole entry G12C): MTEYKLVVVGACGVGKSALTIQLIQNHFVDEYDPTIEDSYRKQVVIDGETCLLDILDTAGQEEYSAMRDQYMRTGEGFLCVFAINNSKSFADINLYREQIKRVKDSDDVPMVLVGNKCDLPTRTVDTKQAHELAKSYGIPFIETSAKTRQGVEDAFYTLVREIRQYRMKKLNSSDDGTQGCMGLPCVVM
Sequence of NRAS G12C (P62937 whole entry): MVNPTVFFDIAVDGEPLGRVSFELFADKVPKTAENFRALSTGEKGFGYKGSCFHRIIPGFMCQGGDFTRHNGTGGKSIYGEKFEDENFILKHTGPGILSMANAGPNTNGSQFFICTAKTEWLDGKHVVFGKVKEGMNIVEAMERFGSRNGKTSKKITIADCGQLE
Sequence of KRAS G12S (P01116 other isoform, or with tags, fused parts or gaps G12S): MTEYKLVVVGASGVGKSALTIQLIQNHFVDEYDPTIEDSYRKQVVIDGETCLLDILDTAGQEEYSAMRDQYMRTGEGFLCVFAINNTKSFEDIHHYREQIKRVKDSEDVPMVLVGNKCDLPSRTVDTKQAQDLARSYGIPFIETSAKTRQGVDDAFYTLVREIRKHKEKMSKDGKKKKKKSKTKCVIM
Sequence of KRAS G12S (P62937 whole entry): as the sequence (P62937 whole entry) above
Sequence of KRAS G13C (P01116 other isoform, or with tags, fused parts or gaps G13C): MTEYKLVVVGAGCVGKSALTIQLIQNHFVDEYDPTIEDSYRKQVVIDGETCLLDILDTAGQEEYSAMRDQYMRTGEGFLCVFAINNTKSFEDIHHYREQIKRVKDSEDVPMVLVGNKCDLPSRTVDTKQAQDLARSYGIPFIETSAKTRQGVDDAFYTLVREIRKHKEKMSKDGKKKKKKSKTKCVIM
Sequence of KRAS G13C (P62937 whole entry): as the sequence (P62937 whole entry) above
Sequence of KRAS G12V (P01116 other isoform, or with tags, fused parts or gaps G12V): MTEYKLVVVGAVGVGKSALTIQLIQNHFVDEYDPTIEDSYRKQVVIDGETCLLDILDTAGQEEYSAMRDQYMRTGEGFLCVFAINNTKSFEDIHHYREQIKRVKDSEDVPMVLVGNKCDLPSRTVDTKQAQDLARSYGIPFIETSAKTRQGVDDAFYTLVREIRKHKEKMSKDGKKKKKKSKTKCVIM
Sequence of KRAS G12V (P62937 whole entry): as the sequence (P62937 whole entry) above
Sequence of NRAS Q61R (P01111 whole entry Q61R): as the sequence (P01111 whole entry G12C) above, with C12G, Q61R counted along it
Sequence of NRAS Q61R (P62937 whole entry): as the sequence (P62937 whole entry) above
Sequence of NRAS WT (P01111 whole entry): as the sequence (P01111 whole entry G12C) above, with C12G counted along it
Sequence of NRAS WT (P62937 whole entry): as the sequence (P62937 whole entry) above
Sequence of KRAS G13D (P01116 other isoform, or with tags, fused parts or gaps G13D): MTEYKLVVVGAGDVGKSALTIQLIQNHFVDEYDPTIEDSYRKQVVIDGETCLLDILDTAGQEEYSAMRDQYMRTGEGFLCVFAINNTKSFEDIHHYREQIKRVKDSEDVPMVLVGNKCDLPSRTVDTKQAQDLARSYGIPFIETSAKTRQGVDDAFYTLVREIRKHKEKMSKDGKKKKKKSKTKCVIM
Sequence of KRAS G13D (P62937 whole entry): as the sequence (P62937 whole entry) above
Sequence of NRAS Q61K (P01111 whole entry Q61K): as the sequence (P01111 whole entry G12C) above, with C12G, Q61K counted along it
Sequence of NRAS Q61K (P62937 whole entry): as the sequence (P62937 whole entry) above
Sequence of KRAS G12C (P01116-2 other isoform, or with tags, fused parts or gaps G12C): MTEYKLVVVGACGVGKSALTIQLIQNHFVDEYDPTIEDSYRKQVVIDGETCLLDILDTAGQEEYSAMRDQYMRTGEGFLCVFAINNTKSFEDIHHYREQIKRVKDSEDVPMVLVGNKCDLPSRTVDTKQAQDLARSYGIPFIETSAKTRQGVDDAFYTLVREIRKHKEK
Sequence of KRAS G12C (P62937 whole entry): as the sequence (P62937 whole entry) above
Sequence of KRAS WT (P01116 other isoform, or with tags, fused parts or gaps): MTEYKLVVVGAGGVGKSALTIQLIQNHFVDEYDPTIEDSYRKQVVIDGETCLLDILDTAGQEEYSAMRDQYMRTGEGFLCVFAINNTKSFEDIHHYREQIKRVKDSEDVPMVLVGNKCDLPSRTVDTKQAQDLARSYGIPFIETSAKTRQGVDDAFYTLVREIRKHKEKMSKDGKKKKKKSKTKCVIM
Sequence of KRAS WT (P62937 whole entry): as the sequence (P62937 whole entry) above
Sequence of KRAS G12D (P01116 other isoform, or with tags, fused parts or gaps G12D): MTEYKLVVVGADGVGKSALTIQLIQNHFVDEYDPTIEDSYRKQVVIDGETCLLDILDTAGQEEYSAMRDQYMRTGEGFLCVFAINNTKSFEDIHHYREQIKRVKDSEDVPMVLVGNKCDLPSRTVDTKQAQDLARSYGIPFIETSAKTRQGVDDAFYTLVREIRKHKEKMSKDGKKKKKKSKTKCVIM
Sequence of KRAS G12D (P62937 whole entry): as the sequence (P62937 whole entry) above
Sequence of KRAS Q61H (P01116 other isoform, or with tags, fused parts or gaps Q61H): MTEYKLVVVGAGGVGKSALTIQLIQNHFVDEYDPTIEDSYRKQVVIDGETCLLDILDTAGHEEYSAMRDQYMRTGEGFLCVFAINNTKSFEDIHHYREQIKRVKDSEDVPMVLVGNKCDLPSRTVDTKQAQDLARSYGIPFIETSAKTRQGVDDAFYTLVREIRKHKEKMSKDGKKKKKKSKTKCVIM
Sequence of KRAS Q61H (P62937 whole entry): as the sequence (P62937 whole entry) above

| Compound | EC50 [1] [nM] | IC50 (KRAS G12D) [nM] | IC50 (KRAS G12C) [nM] | IC50 (KRAS Q61H) [nM] | IC50 (NRAS G12C) [nM] | IC50 (KRAS G12S) [nM] | IC50 (NRAS WT) [nM] | IC50 (NRAS Q61K) [nM] | IC50 (KRAS G13C) [nM] | IC50 (KRAS G12V) [nM] | IC50 (KRAS WT) [nM] | IC50 (NRAS Q61R) [nM] | IC50 (KRAS G13D) [nM] | IC50 [3] [nM] | IC50 [2] [nM] |
| --- | --- | --- | --- | --- | --- | --- | --- | --- | --- | --- | --- | --- | --- | --- | --- |
| CCn1c(-c2cccnc2[C@H](C)OC)c2c3cc(ccc31)-c1csc(n1)C[C@H](NC(=O)[C@H](C(C)C)N(C)C(=O)N1CCOCC13COC3)C(=O)N1CCC[C@H](N1)C(=O)OCC(C)(C)C2 [Compound A474] | < 5000 | 1000 to 10000 | 100 to 1000 | 10 to 100 | 100 to 1000 | 100 to 1000 | 100 to 1000 | 100 to 1000 | 100 to 1000 | 100 to 1000 | 100 to 1000 | 100 to 1000 | 1000 to 10000 | – | 10 to 100 |
| CCn1c(-c2cccnc2[C@H](C)OC)c2c3cc(ccc31)-c1csc(n1)C[C@H](NC(=O)[C@H](C(C)C)N(C)C(=O)N1CC[C@@]3(CCNC3=O)C1)C(=O)N1CCC[C@H](N1)C(=O)OCC(C)(C)C2 [Compound A480] | – | 1000 to 10000 | 100 to 1000 | 10 to 100 | 100 to 1000 | 100 to 1000 | 100 to 1000 | 100 to 1000 | 100 to 1000 | 100 to 1000 | 100 to 1000 | 100 to 1000 | 100 to 1000 | 100 to 1000 | 100 to 1000 |
| CCn1c(-c2cc(N3CCN(C)CC3)cnc2[C@H](C)OC)c2c3cc(ccc31)-c1csc(n1)C[C@H](NC(=O)[C@H](C(C)C)N(C)C(=O)[C@@H]1OCC[C@@H]1c1cccnc1)C(=O)N1CCC[C@H](N1)C(=O)OCC(C)(C)C2 [Compound A490] | < 5000 | 1000 to 10000 | 100 to 1000 | 100 to 1000 | 100 to 1000 | 100 to 1000 | 100 to 1000 | 100 to 1000 | 100 to 1000 | 100 to 1000 | 100 to 1000 | 100 to 1000 | 1000 to 10000 | – | 10 to 100 |
| CCn1c(-c2cccnc2[C@H](C)OC)c2c3cc(ccc31)-c1csc(n1)C[C@H](NC(=O)[C@H](C(C)C)N(C)C(=O)N1CC3(CCOCC3)C1)C(=O)N1CCC[C@H](N1)C(=O)OCC(C)(C)C2 [Compound A521] | – | 1000 to 10000 | 100 to 1000 | 100 to 1000 | 100 to 1000 | 100 to 1000 | 100 to 1000 | 100 to 1000 | 100 to 1000 | 100 to 1000 | 100 to 1000 | 100 to 1000 | 1000 to 10000 | 10 to 100 | 10 to 100 |

Second part, led by results:

| EC50 [1] [nM] | IC50 (KRAS G12D) [nM] | IC50 (KRAS G12C) [nM] | IC50 (KRAS Q61H) [nM] | IC50 (NRAS G12C) [nM] | IC50 (KRAS G12S) [nM] | IC50 (NRAS WT) [nM] | IC50 (NRAS Q61K) [nM] | IC50 (KRAS G13C) [nM] | IC50 (KRAS G12V) [nM] | IC50 (KRAS WT) [nM] | IC50 (NRAS Q61R) [nM] | IC50 (KRAS G13D) [nM] | IC50 [3] [nM] | Compound | IC50 [2] [nM] |
| --- | --- | --- | --- | --- | --- | --- | --- | --- | --- | --- | --- | --- | --- | --- | --- |
| < 5000 | 1000 to 10000 | 1000 to 10000 | 100 to 1000 | 1000 to 10000 | 1000 to 10000 | 1000 to 10000 | 1000 to 10000 | 100 to 1000 | 1000 to 10000 | 1000 to 10000 | 1000 to 10000 | 1000 to 10000 | – | CCn1c(-c2cccnc2[C@H](C)OC)c2c3cc(ccc31)-c1csc(n1)C[C@H](NC(=O)[C@H](C(C)C)N(C)C(=O)N1CC[C@@H]3CN(C)C[C@@H]31)C(=O)N1CCC[C@H](N1)C(=O)OCC(C)(C)C2 [Compound A470] | 100 to 1000 |
| – | 100 to 1000 | 10 to 100 | 10 to 100 | 10 to 100 | 100 to 1000 | 100 to 1000 | 100 to 1000 | 10 to 100 | 100 to 1000 | 100 to 1000 | 100 to 1000 | 100 to 1000 | 10 to 100 | CCn1c(-c2cccnc2[C@H](C)OC)c2c3cc(ccc31)-c1cc(CF)cc(c1)C[C@H](NC(=O)[C@H](C(C)C)N(C)C(=O)[C@@H]1OCC[C@@H]1c1ccccc1)C(=O)N1CCC[C@H](N1)C(=O)OCC(C)(C)C2 [Compound A509] | 10 to 100 |
